From US8959984B2, “Proteome-wide quantification of small molecule binding to cellular target proteins” (priority 2007, dated 2015)
pKi: −log10 of the molar value.

Experiments:
Assay in all cases: binding to VI16742 beads (HeLa lysate, SILAC MS)
DPH5 (IPI00375824) = biological target: T1, DPH5 (IPI00375824) (Homo sapiens, UniProt Q9H2P9)
T1 construct: endogenous in cells; host or cells: HeLa S3
T1 sequence (Q9H2P9 1-285): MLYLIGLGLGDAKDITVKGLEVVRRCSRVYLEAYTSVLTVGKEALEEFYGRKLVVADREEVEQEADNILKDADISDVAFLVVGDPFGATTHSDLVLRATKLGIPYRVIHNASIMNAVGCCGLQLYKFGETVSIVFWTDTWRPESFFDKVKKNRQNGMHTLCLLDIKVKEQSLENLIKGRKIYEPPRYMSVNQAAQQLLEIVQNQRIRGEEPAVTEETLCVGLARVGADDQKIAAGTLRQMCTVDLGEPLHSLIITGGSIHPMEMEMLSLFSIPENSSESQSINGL
Source text: (§1) In an alternative implementation of the chemical proteomic approach according to the invention, the broadly-selective pyrido[2,3-d]pyrimidine-based kinase inhibitor VI16742 has been used for affinity capture (FIG. 10a). […] As shown by gene ontology analysis, the corresponding molecular functions were highly over-represented in proteins specifically retained by the inhibitor resin (FIG. 10b).

CSK (IPI00013212) = biological target: T2, CSK (IPI00013212) (Homo sapiens, UniProt P41240)
T2 construct: endogenous in cells; host or cells: HeLa S3 cell lysate
Source text: as §1

[1] = biological target: T3, MRCKb (CDC42BPB, IPI00477763) (Homo sapiens, UniProt Q9Y5S2)
T3 construct: endogenous in cells; host or cells: HeLa S3
T3 sequence (Q9Y5S2 whole entry): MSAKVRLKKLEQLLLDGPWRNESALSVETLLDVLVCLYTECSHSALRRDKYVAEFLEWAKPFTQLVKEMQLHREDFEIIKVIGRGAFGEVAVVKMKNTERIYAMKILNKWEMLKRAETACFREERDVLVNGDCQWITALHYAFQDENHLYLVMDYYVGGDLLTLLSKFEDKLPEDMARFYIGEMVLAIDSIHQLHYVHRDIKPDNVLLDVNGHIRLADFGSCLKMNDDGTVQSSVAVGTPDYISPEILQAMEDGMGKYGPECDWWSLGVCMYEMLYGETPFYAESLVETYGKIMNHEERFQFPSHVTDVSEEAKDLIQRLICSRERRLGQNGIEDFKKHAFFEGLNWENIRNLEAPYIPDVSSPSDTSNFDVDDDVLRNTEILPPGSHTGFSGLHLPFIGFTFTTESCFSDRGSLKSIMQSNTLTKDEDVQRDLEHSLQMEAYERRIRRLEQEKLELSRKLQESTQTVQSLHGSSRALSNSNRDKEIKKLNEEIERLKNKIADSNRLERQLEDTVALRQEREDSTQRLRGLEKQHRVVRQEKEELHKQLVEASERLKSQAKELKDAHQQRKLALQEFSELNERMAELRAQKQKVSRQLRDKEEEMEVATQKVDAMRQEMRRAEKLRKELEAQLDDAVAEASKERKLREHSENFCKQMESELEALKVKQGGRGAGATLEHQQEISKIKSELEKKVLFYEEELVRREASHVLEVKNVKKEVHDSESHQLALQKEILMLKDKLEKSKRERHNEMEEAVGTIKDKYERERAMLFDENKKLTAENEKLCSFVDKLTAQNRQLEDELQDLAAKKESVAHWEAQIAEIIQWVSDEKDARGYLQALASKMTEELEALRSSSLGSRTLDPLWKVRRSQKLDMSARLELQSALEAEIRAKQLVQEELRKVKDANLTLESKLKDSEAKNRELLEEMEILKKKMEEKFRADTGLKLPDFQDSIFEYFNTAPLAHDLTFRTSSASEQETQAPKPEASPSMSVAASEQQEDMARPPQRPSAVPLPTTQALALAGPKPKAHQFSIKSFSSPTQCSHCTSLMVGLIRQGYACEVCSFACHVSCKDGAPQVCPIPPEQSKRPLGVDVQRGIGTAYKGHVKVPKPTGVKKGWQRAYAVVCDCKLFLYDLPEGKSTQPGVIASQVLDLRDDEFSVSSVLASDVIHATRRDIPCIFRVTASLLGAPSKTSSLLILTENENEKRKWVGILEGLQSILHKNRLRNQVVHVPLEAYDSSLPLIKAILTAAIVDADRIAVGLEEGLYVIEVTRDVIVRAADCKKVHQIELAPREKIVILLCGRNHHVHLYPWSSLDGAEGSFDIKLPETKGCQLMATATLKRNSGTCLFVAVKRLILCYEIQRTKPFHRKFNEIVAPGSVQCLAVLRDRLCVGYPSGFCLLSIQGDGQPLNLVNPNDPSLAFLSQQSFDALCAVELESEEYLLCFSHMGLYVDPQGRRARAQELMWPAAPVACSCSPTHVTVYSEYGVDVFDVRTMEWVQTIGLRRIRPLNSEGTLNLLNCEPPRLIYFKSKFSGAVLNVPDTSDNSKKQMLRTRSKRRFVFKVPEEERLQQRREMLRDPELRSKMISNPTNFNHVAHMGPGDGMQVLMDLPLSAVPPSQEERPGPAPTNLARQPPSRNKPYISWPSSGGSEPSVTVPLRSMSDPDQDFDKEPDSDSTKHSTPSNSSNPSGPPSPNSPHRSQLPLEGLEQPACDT
Source text: as §1

FN3KRP (IPI00099986) = biological target: T4, FN3KRP (IPI00099986) (Homo sapiens, UniProt Q9HA64)
T4 construct: endogenous in cells; host or cells: HeLa S3
T4 sequence (Q9HA64 1-309): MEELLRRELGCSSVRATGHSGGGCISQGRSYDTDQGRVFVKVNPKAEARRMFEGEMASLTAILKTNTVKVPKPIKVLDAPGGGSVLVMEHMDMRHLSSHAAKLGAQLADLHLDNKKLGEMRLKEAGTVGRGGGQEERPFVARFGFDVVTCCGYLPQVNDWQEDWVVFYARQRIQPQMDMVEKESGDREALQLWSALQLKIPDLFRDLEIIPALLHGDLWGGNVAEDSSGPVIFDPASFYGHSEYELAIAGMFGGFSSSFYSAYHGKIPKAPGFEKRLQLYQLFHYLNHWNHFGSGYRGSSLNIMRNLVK
Source text: as §1

[2] = biological target: T5, PHKg2 (PHKG2, IPI00012891) (Homo sapiens, UniProt P15735)
T5 construct: endogenous in cells; host or cells: HeLa S3
T5 sequence (P15735 1-406): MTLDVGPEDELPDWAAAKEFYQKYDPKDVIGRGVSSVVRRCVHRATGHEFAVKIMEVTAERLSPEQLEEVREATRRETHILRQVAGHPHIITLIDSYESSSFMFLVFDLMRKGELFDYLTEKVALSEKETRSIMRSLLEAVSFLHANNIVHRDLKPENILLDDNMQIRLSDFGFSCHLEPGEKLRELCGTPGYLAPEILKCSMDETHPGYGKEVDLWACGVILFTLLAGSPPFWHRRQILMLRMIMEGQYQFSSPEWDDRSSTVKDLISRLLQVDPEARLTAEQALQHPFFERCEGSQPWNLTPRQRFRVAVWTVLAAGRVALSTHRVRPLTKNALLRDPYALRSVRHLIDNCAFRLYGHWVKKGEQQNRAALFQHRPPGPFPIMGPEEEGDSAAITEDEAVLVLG
Source text: as §1

CDK6 (IPI00023529) = biological target: T6, CDK6 (IPI00023529) (Homo sapiens, UniProt Q00534)
T6 construct: endogenous in cells; host or cells: HeLa S3
T6 sequence (Q00534 whole entry): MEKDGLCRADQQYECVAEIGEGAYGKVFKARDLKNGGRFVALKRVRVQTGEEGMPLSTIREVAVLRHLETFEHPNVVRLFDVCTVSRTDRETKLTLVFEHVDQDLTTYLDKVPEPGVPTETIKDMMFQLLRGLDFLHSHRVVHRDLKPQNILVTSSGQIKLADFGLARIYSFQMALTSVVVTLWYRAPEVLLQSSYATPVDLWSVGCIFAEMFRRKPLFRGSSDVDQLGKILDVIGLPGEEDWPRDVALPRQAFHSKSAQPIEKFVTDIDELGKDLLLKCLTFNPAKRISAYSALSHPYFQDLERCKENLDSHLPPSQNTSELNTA
Source text: as §1

PKN2 (IPI00002804) = biological target: T7, PKN2 (IPI00002804) (Homo sapiens, UniProt Q16513)
T7 construct: endogenous in cells; host or cells: HeLa S3
Source text: as §1

ROCK2 (IPI00307155) = biological target: T8, ROCK2 (IPI00307155) (Homo sapiens, UniProt O75116)
T8 construct: endogenous in cells; host or cells: HeLa S3
T8 sequence (O75116 whole entry): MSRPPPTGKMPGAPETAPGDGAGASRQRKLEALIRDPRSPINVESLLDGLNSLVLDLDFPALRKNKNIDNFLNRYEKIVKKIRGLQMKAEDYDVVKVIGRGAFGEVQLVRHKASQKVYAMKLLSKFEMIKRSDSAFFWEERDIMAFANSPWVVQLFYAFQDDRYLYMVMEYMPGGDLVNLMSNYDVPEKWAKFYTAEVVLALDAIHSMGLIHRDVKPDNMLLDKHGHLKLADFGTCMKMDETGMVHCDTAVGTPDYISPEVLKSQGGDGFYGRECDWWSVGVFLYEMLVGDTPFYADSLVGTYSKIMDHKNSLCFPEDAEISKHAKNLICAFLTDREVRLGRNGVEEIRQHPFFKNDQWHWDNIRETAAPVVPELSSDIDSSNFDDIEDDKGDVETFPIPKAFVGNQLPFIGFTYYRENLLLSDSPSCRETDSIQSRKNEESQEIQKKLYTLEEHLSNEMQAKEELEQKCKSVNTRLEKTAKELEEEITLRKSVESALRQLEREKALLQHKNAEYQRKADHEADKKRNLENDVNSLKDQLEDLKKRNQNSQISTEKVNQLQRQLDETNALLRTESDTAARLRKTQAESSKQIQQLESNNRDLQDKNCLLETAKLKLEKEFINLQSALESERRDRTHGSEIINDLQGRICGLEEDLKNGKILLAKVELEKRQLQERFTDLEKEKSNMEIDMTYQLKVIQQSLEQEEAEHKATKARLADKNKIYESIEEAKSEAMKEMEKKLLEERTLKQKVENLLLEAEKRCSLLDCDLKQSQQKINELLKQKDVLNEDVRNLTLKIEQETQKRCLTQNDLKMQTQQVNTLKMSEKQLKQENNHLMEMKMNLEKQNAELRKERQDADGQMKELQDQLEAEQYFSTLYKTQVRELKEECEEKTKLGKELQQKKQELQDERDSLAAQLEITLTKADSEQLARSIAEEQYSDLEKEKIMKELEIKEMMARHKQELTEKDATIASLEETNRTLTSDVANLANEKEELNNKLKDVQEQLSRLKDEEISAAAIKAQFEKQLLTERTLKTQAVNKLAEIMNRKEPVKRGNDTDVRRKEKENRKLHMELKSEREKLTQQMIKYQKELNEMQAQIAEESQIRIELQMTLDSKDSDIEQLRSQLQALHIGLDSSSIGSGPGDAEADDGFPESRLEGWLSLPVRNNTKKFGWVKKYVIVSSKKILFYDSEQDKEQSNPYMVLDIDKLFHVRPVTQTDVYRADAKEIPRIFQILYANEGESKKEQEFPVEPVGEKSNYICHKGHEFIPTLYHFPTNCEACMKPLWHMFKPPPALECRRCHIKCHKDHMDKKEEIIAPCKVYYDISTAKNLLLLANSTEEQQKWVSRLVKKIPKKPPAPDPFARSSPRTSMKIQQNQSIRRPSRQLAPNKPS
Source text: as §1

[3] = biological target: T9, OSR1 (OXSR1, IPI00010080) (Homo sapiens, UniProt O95747)
T9 construct: endogenous in cells; host or cells: HeLa S3
T9 sequence (O95747 whole entry): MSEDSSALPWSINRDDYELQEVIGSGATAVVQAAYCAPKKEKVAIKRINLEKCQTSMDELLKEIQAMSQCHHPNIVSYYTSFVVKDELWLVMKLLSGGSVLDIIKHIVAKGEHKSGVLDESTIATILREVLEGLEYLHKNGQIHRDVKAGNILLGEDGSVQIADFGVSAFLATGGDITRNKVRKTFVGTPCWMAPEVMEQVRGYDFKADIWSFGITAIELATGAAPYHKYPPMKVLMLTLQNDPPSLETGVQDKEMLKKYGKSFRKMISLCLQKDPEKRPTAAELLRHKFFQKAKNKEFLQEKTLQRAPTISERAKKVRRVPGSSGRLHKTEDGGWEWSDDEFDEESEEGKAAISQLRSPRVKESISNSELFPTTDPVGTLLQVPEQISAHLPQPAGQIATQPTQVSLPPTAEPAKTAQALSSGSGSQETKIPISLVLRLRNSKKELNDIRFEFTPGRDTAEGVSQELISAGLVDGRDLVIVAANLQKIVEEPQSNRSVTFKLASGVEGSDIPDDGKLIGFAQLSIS
Source text: as §1

BUB1 (IPI00783305) = biological target: T10, BUB1 (IPI00783305) (Homo sapiens, UniProt O43683)
T10 construct: endogenous in cells; host or cells: HeLa S3
T10 sequence (O43683 whole entry): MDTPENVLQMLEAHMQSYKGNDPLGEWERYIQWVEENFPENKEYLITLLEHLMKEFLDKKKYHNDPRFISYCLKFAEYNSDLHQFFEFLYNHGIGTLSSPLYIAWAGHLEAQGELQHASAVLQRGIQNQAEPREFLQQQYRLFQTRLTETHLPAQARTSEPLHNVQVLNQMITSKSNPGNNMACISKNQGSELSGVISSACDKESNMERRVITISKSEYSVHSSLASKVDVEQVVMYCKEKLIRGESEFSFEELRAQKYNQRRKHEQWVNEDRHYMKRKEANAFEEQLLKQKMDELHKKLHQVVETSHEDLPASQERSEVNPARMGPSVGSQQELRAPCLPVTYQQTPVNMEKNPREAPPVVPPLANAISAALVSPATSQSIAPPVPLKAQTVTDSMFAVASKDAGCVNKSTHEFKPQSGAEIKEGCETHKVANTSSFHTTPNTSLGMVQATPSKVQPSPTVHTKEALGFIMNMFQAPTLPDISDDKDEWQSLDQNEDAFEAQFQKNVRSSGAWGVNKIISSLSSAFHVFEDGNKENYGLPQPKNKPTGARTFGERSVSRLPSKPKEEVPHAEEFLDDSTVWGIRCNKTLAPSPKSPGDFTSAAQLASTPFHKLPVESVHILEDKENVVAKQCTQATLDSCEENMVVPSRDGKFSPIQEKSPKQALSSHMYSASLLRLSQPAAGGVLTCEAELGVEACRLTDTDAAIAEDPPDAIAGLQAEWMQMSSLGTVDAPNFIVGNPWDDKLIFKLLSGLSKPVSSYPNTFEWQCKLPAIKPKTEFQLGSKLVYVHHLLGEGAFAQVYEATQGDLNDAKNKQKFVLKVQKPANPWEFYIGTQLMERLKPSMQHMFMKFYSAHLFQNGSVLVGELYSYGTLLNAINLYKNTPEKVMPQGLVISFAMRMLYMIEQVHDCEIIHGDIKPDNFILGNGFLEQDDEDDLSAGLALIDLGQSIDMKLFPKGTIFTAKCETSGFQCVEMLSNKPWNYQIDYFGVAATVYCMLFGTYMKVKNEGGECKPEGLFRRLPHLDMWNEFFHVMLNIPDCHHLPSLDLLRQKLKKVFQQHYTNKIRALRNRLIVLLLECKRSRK
Source text: as §1

[4] = control beads vs first incubation

`CC(C)n1c(=O)ccc2cnc(Nc3ccc(OCCN)cc3)nc21` [V16742] was tested, and the “r (5 h/2.5 h INC. TIME)” value (DPH5 (IPI00375824); 5 h vs 2.5 h incubation time) was 2.72, the “rAVERAGE (CTRL/1 INC)” value (DPH5 (IPI00375824); [4]) was 0.03 and the pKi (DPH5 (IPI00375824); immobilized VI16742) was 3.68. The “rAVERAGE (2 INC/1 INC)” value (DPH5 (IPI00375824); second vs first incubation) was 0.80, the “r (5 h/2.5 h INC. TIME)” value (CSK (IPI00013212); 5 h vs 2.5 h incubation time) was 1.51 and the “rAVERAGE (CTRL/1 INC)” value (CSK (IPI00013212); [4]) was 0.02. For the same compound, the pKi (CSK (IPI00013212); immobilized VI16742) was 4.10, the “rAVERAGE (2 INC/1 INC)” value (CSK (IPI00013212); second vs first incubation) was 0.60 and the “r (3 MG/1 MG LYSATE)” value ([1]; 3 mg vs 1 mg lysate) was 2.35. For the same compound, the “r (5 h/2.5 h INC. TIME)” value ([1]; 5 h vs 2.5 h incubation time) was 1.34, the “rAVERAGE (CTRL/1 INC)” value [1, 4] was 0.06 and the pKi ([1]; immobilized VI16742) was 3.52. For the same compound, the “rAVERAGE (2 INC/1 INC)” value ([1]; second vs first incubation) was 0.85, the “r (3 MG/1 MG LYSATE)” value (FN3KRP (IPI00099986); 3 mg vs 1 mg lysate) was 2.02 and the “r (5 h/2.5 h INC. TIME)” value (FN3KRP (IPI00099986); 5 h vs 2.5 h incubation time) was 0.95. For the same compound, the “rAVERAGE (CTRL/1 INC)” value (FN3KRP (IPI00099986); [4]) was 0.07, the pKi (FN3KRP (IPI00099986); immobilized VI16742) was 3.93 and the “rAVERAGE (2 INC/1 INC)” value (FN3KRP (IPI00099986); second vs first incubation) was 0.69. For the same compound, the “r (3 MG/1 MG LYSATE)” value ([2]; 3 mg vs 1 mg lysate) was 2.14, the “r (5 h/2.5 h INC. TIME)” value ([2]; 5 h vs 2.5 h incubation time) was 1.33 and the “rAVERAGE (CTRL/1 INC)” value [2, 4] was 0.10. For the same compound, the pKi ([2]; immobilized VI16742) was 3.53, the “rAVERAGE (2 INC/1 INC)” value ([2]; second vs first incubation) was 0.85 and the “r (5 h/2.5 h INC. TIME)” value (CDK6 (IPI00023529); 5 h vs 2.5 h incubation time) was 0.75. For the same compound, the “rAVERAGE (CTRL/1 INC)” value (CDK6 (IPI00023529); [4]) was 0.10, the pKi (CDK6 (IPI00023529); immobilized VI16742) was 3.93 and the “rAVERAGE (2 INC/1 INC)” value (CDK6 (IPI00023529); second vs first incubation) was 0.70. The “r (3 MG/1 MG LYSATE)” value (PKN2 (IPI00002804); 3 mg vs 1 mg lysate) was 2.87, the “r (5 h/2.5 h INC. TIME)” value (PKN2 (IPI00002804); 5 h vs 2.5 h incubation time) was 1.35 and the “rAVERAGE (CTRL/1 INC)” value (PKN2 (IPI00002804); [4]) was 0.03. For the same compound, the pKi (PKN2 (IPI00002804); immobilized VI16742) was 3.94, the “rAVERAGE (2 INC/1 INC)” value (PKN2 (IPI00002804); second vs first incubation) was 0.69 and the “r (3 MG/1 MG LYSATE)” value (ROCK2 (IPI00307155); 3 mg vs 1 mg lysate) was 3.18. The “r (5 h/2.5 h INC. TIME)” value (ROCK2 (IPI00307155); 5 h vs 2.5 h incubation time) was 1.74, the “rAVERAGE (CTRL/1 INC)” value (ROCK2 (IPI00307155); [4]) was 0.08 and the pKi (ROCK2 (IPI00307155); immobilized VI16742) was 3.59. The “rAVERAGE (2 INC/1 INC)” value (ROCK2 (IPI00307155); second vs first incubation) was 0.83, the “rAVERAGE (CTRL/1 INC)” value [3, 4] was 0.05 and the pKi ([3]; immobilized VI16742) was 3.68. The “rAVERAGE (2 INC/1 INC)” value ([3]; second vs first incubation) was 0.80, the “rAVERAGE (CTRL/1 INC)” value (BUB1 (IPI00783305); [4]) was 0.05 and the pKi (BUB1 (IPI00783305); immobilized VI16742) was 3.79. For the same compound, the “rAVERAGE (2 INC/1 INC)” value (BUB1 (IPI00783305); second vs first incubation) was 0.76.
